# Patent US20250157614A1, “SUBSTANCE DELIVERY PLANNING SYSTEM” (Syqe Medical Ltd., priority 2019, published 2025)
# How the values were obtained:
# [1] = Clinical trial: pharmacokinetic analysis of Δ9-THC plasma levels after single inhalation via metered dose inhaler
# Method: An objective of the trial was to evaluate the effects of a single inhalation of vaporized ground cannabis doses comprising 0.5 mg or 1 mg THC, as compared to placebo. […] The patients were licensed to use medical cannabis and were guided to refrain from using cannabis at least 12 hours prior to the trial commencement. The patients were guided how to use the inhaler device and signed a written consent.
# The trial included three sessions, with an interval of at least 48 hours between sessions. In each of the sessions, a randomized single dose or placebo was delivered to the patients via inhalation. During each session, at a plurality of pre-defined time points, the patients were cognitively tested using “Cambridge Neuropsychological Test Automated Battery”; questioned for assessment of pain (using the VAS); their blood pressure and heartrate were measured; and they were questioned regarding safety parameters, such as feeling “high”, dizziness, mouth dryness. Blood samples were collected at pre-defined time points for performing a pharmacokinetic analysis of THC (being the active substance, in accordance with some embodiments).
# [2] = system: chronic pain; test: Clinical trial: pain intensity (0-10 point VAS) after single inhalation via metered dose inhaler; type: in vivo, human (hospitalized adult patients)
# From the text: FIG. 5B presents effects of the three different interventions on pain intensity. About 1 VAS point decline in pain intensity was noted during the follow-up period following placebo administration.
# [3] = single inhalation of 0.5 mg Δ9-THC
# [4] = single inhalation of 1 mg Δ9-THC
# [5] = 0.5 mg dosage, observed at 120 minutes following inhalation
# [6] = 1 mg dosage, observed at 60 minutes following inhalation
compound,measurement,setting,value
"CCCCCc1cc(O)c2c(c1)OC(C)(C)[C@@H]1CCC(C)=C[C@@H]21 [Δ9-THC, Δ9-tetrahydrocannabinol]",mean area under the curve of plasma concentration vs. time from 0 to infinity (AUC0→infinity),[1]; [3],300 ± 144 ng/min/mL
same,time upon which maximum plasma concentration was reached (Tmax),[1]; [3],3.7 ± 1.4 min
same,mean maximum plasma Δ9-THC concentration (Cmax) ±SD,"[1]; single inhalation of 0.5 mg Δ9-THC, vaporized ground cannabis, 22 of 27 patients analysed",14.3 ± 7.7 ng/mL
same,AUC0→infinity,[1]; [4],769 ± 331 ng/min/mL
same,Cmax ±SD,[1]; [4],33.8 ± 25.7 ng/mL
same,Tmax,[1]; [4],4.4 ± 2.1 min
same,maximum change in VAS pain score,[2]; [5],1.95 points
same,maximum change in VAS pain score (percent),[2]; [5],24%
same,decline in pain intensity compared to placebo,"[2]; 0.5 mg Δ9-THC dose, follow-up period",greater decline in pain intensity
same,maximum change in VAS pain score,[2]; [6],2.95 points
same,maximum change in VAS pain score (percent),[2]; [6],39.4%
same,reduction in VAS compared to placebo (0 mg) and 0.5 mg,"[2]; 1 mg dose, 15 minutes after inhalation and onward, RM-ANOVA p=0.0015 vs placebo, p=0.0058 vs 0.5 mg",statistically significantly larger
